Measured values taken from PubChem BioAssay (NCI).
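Compound exposure: 48 hours, 5 concentrations, 96-well plates. GI50 marks 50% less growth. TGI: total growth inhibition.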 Where a SMILES comes first, the peptide text is derived from it. [ ]: non-standard residue; d: D form. The star is where a group is joined. ξ: configuration not given here. ξD = NC(CC(=O)O)C(=O)O; Ac3c = NC1(C(=O)O)CC1; Boc = CC(C)(C)OC(=O)*; OBn = c1ccc(CO*)cc1

How the values were obtained:
Assay in all cases: growth of human tumour cells (NCI), 48 h
MOLT-4 leukemia = system: MOLT-4 leukemia
HT29 colon = system: HT29 colon
NCI-H23 lung = system: NCI-H23 lung
DMS 273 small cell lung = system: DMS 273 small cell lung
LOX IMVI melanoma = system: LOX IMVI melanoma
UACC-62 melanoma = system: UACC-62 melanoma
SNB-78 CNS = system: SNB-78 CNS
A498 renal = system: A498 renal
HOP-62 NSCLC = system: HOP-62 NSCLC
ACHN renal = system: ACHN renal
PC-3 prostate = system: PC-3 prostate

| Compound | TGI (MOLT-4 leukemia) [µM] | TGI (HT29 colon) [µM] | TGI (NCI-H23 lung) [µM] | TGI (DMS 273 small cell lung) [µM] | TGI (LOX IMVI melanoma) [µM] | TGI (UACC-62 melanoma) [µM] | TGI (SNB-78 CNS) [µM] | TGI (A498 renal) [µM] | TGI (HOP-62 NSCLC) [µM] | TGI (ACHN renal) [µM] | TGI (PC-3 prostate) [µM] | GI50 (MOLT-4 leukemia) [µM] | GI50 (A498 renal) [µM] | GI50 (LOX IMVI melanoma) [µM] | GI50 (HOP-62 NSCLC) [µM] |
| --- | --- | --- | --- | --- | --- | --- | --- | --- | --- | --- | --- | --- | --- | --- | --- |
| CC(=O)NC1=C(C)C(=O)c2c(nc3n2CCC3O)C1=O (stereo not given) | 16.6 | > 100 | > 89.8 | > 100 | > 100 | 38.2 | 64.4 | > 100 | > 100 | > 100 |  |  |  |  |  |
| CCNC(=O)/C=C/CCC#Cc1ccc(-c2ccc(-c3cccs3)s2)s1 | > 100 | > 100 | > 100 | > 100 | > 100 | > 100 | > 100 |  | > 100 | > 100 |  |  |  |  |  |
| Oc1ccc2c(c1)CC[N+]1=C2CCC2CCCC21 (stereo not given) |  | > 100 | > 100 | > 100 | > 100 | > 100 |  |  |  | > 100 |  |  |  |  |  |
| CCOC(=O)C(=O)C1C(=O)Nc2ccccc21 (stereo not given) | > 100 | > 100 | > 100 | > 100 | > 100 | > 100 |  | > 100 | > 100 | > 100 |  |  |  |  |  |
| O=c1c2ccccc2n2nnc3ccc(NCCCNCCNCCCNc4ccc5nnn6c7ccccc7c(=O)c4c56)c1c32 | > 21.2 | 1.52 | 15.3 |  | 24 | > 50 |  | > 37 | 12.3 | > 18 | 16.3 |  |  |  |  |
| CCOC(=O)/C(C#N)=C/c1ccc(CO)o1 | > 100 | > 100 | > 100 |  | > 100 | > 100 |  | > 100 | > 100 | > 100 | > 100 |  |  |  |  |
| COc1ccc(/C=C2\CC3C4CC=C5C[C@@H](O)CC[C@]5(C)C4CC[C@]3(C)\C2=N\O)cc1OC (stereo not given in full) | > 100 | > 100 | > 100 |  | > 100 | 25.6 |  | 86.2 | > 100 | 36.9 | > 100 |  |  |  |  |
| O=C1C=C2CO[C@H]3OC[C@H](O)[C@@H]1[C@@H]23 | > 100 | > 100 | > 100 |  | > 100 | > 100 |  | > 100 | > 100 | > 100 | > 100 |  |  |  |  |
| NS(=O)(=O)c1ccc(Nc2c3ccccc3nc3c(C(=O)NCCCN(CCO)CCO)cccc23)cc1 | 99 | 77 | 53.8 |  | 59.1 | 57.8 |  | > 100 | 66.1 | > 100 | > 100 |  |  |  |  |
| [N-]=[N+]=NC1CC(n2cc(COCC(F)(F)F)c(=O)[nH]c2=O)OC1CO (stereo not given) | > 100 | > 100 | > 100 | > 100 | > 100 | > 100 | > 100 | > 100 | > 100 | > 100 |  |  |  |  |  |
| C[C@@H]1C[C@]2(C[C@@H](C)[C@H]3C(C[C@@]4(C)CCC[C@@H]5C6=C[C@H](CCC34C)OC6=CC(=O)OC5(C)C)O2)OC1=O (stereo not given in full) | > 51.5 | > 51.5 | > 51.5 | > 51.5 | > 51.5 | > 51.5 | > 51.5 | > 51.5 | > 51.5 |  |  |  |  |  |  |
| CC(NC1=NCCO1)c1cccc([N+](=O)[O-])c1 (stereo not given) | > 100 | > 100 | > 100 |  | > 100 | > 100 |  | > 100 | > 100 | > 100 | > 100 |  |  |  |  |
| COCN1CCN=c2c1c1c3c(c4ccccc4n23)CCC1 | > 100 | > 100 | > 100 |  | > 100 | > 100 |  | > 100 | > 100 | > 100 | > 100 |  |  |  |  |
| Nc1ccc(-c2nc3cc(F)ccc3s2)cc1I | > 100 | > 100 | 18.9 |  | > 100 | 85.8 |  | 31.2 | 33.6 | 24.6 | > 100 |  |  |  |  |
| CSc1nc(NC2OCC(O)C(O)C2O)c(N)c(=O)n1C (stereo not given) | > 100 | > 100 | > 100 | > 100 | > 100 | > 100 | > 100 | > 100 | > 100 |  |  |  |  |  |  |
| C=CCN(c1cc(OCc2ccccc2)c(NC(C)=O)cc1[N+](=O)[O-])S(C)(=O)=O | > 100 | > 100 | 32.3 |  | > 100 | > 100 |  | 41.6 | 53 | > 100 | > 100 |  |  |  |  |
| CCOC(=O)c1c2c(n(-c3ccc(OC)cc3)c1C)C(=O)C(=O)c1ccccc1-2 | > 100 | > 22.7 | 3.24 |  | 2.49 | 3.28 |  | 3.97 | 3.46 | 2.36 | 5.7 | 1.66 | 1.76 |  |  |

| Compound | TGI (MOLT-4 leukemia) [µM] | TGI (HT29 colon) [µM] | TGI (NCI-H23 lung) [µM] | TGI (DMS 273 small cell lung) [µM] | TGI (LOX IMVI melanoma) [µM] | TGI (UACC-62 melanoma) [µM] | TGI (SNB-78 CNS) [µM] | TGI (A498 renal) [µM] | TGI (HOP-62 NSCLC) [µM] | TGI (ACHN renal) [µM] | TGI (PC-3 prostate) [µM] | GI50 (MOLT-4 leukemia) [µM] | GI50 (A498 renal) [µM] | GI50 (LOX IMVI melanoma) [µM] | GI50 (HOP-62 NSCLC) [µM] |
| --- | --- | --- | --- | --- | --- | --- | --- | --- | --- | --- | --- | --- | --- | --- | --- |
| COc1cc(/C=C2\N=C(c3ccccc3)N(/N=C3\C(=O)Nc4ccccc43)C2=O)cc(OC)c1OC | > 100 | > 100 | > 100 |  | > 100 | > 100 |  | > 100 | > 100 | > 100 | > 100 |  |  |  |  |
| C=C1C(=O)O[C@H]2C/C(C)=C/CC/C(C)=C/CC[C@@](C)(O)[C@@H](I)C[C@@H]12 | > 26.2 | 26.8 | 2.43 |  | 3.31 | 23.9 |  | 32 | 30.9 | 21.5 | 21.1 |  |  |  |  |
| Cc1ccc(NC(=S)Nc2c(C)n(C)n(-c3ccccc3)c2=O)cc1 | > 100 | > 100 | > 100 |  | > 100 | > 100 |  | > 100 | > 100 | > 100 | > 100 |  |  |  |  |
| O=C1CCC2(CC1CCSc1ccccc1)OCCO2 (stereo not given) | > 100 | > 100 | > 100 |  | > 100 | > 100 |  | > 100 | > 100 | > 100 | > 100 |  |  |  |  |
| CC1(C)CN(c2ccccc2)C(=O)C1OC(=O)[C@@]1(C)C[C@@H]2C=C[C@H]1C2 (stereo not given in full) | > 100 | 28.8 | 56 |  | 40.3 | 41.4 |  | 61.3 | 40.8 | > 100 | 83.2 |  |  |  |  |
| CN(C)CCCNc1c2ccccc2nc2cccc([N+](=O)[O-])c12 | 0.052 |  |  | 0.0184 |  |  | 0.0601 | 0.00198 |  |  | 0.00244 |  |  | 0.019 | 0.0222 |
| COC(=O)C1(NC(=O)C(CC(=O)OCc2ccccc2)NC(=O)OC(C)(C)C)CC1 (stereo not given) (Boc-[ξD](OBn)-[Ac3c]-OMe) | > 100 | > 100 | > 100 |  | > 100 | 91.7 |  | > 100 | > 100 | > 100 | > 100 |  |  |  |  |
| CCCn1c(=O)c2ccccc2[n+]2c(-c3ccc([N+](=O)[O-])cc3)csc12 | 79.9 | > 100 | > 100 |  | 51.3 | > 100 |  | 74.4 | 80.8 | > 100 | > 100 |  |  |  |  |
| N=S(=O)(c1ccccc1)c1ccccc1[N+](=O)[O-] (stereo not given) | > 100 | > 100 | > 100 | > 100 |  | > 100 | > 100 | > 100 | > 100 | > 100 |  |  |  |  |  |
| CN(C)CCOC(=O)c1ccc(N)cc1 | 61.5 | > 100 | > 100 |  | > 100 | > 100 |  | > 100 | > 100 | > 100 | 35.1 |  |  |  |  |
| CC1CCc2c(sc3ncnc(N/N=C/c4ccc(Cl)c(Cl)c4)c23)C1 (stereo not given) | > 100 | > 100 | 79.8 | 39.6 | 54.6 | 64.5 |  |  | > 100 | 58 |  |  |  |  |  |
| O=C(OCCN1CCCCC1)C(c1ccccc1)C1(O)CCSCC1 (stereo not given) | > 100 | > 100 | > 100 |  | > 100 | > 100 |  | > 100 | > 100 | > 100 | > 100 |  |  |  |  |
| COc1ccc2c(c1)nc1n2C(N)=Nc2ccccc2S1 | > 56.6 | > 100 | > 100 |  | > 72.8 | > 74.4 |  | > 88.4 | > 100 | > 100 | > 100 |  |  |  |  |
| Cc1cc(Nc2ccc(N=Nc3ccc(O)c4ncccc34)cc2)nc(C)n1 | 48.3 | > 75.2 | > 54.2 |  | 43.8 | 24.6 |  | 46.1 | > 69.6 | > 77.9 | > 69.9 |  |  |  |  |
| COc1c(OC)c(O)c2c(=O)c(OC)c(-c3ccc4c(c3)OCO4)oc2c1O | > 100 | > 100 | > 100 |  | > 100 | > 100 |  | > 100 | > 100 | > 100 | > 100 |  |  |  |  |
| O=C(/C=C/c1ccc(-c2ccccc2)cc1)NCc1ccc(C(=O)NCCc2c[nH]c3ccccc23)cc1 | 38.8 | 29.3 | > 100 |  | > 100 | > 100 |  | 80.4 | 36.7 | > 100 | > 100 |  |  |  |  |
